Test results from US20030050470A1, “Biomarkers and targets for diagnosis, prognosis and management of prostate disease, bladder and breast cancer” (UroCor, Inc., priority 1996, published 2003).
Where two headings read alike, the source gives them in different places.

Legend:
B 16 melanoma cell line = B 16 melanoma cell line (Rieber & Rieber, 1994); cited from earlier work
[1] = system: UC 28 gene message in LnCaP cells; conditions: charcoal stripped serum 48 hours, DHT 0, 0.1, 1, 10 and 100 nM for 24 hours, normalized to β-actin
Procedure: FIG. 17. […] LnCaP cells were cultured in RPMI-1640 with 10% charcoal stripped serum for 48 hours prior to treatment. The cells were incubated in DHT for 24 hours. […] RT-PCR message was normalized to β-actin.
Since hormones regulate both prostate and mammary glands, the possibility that expression of this gene is modified by androgen was examined.

[2] = system: PSMA messenger RNA in LNCAP prostate cancer cell line; conditions: LNCAP cells after exposure (Israeli et al., 1994); cited from earlier work
[3] = system: cyclin A in DU-145 prostate carcinoma cell line; conditions: DU-145 cells (Qiao et al., 1994); cited from earlier work

## N[C@@H](Cc1ccc(O)cc1)C(=O)O [L-tyrosine]
B 16 melanoma cell line
  cyclin A activity: decrease in cyclin A activity
  melanogenesis and replicative senescence: promote increased melanogenesis and replicative senescence

## C[C@]12CCC(=O)C[C@@H]1CC[C@@H]1[C@@H]2CC[C@]2(C)[C@@H](O)CC[C@@H]12 [DHT, dihydrotestosterone]
[1]
  UC 28 gene expression (UC 28 message level by RT-PCR): increasing UC 28 message level
[1]; listed as dihydrotestosterone
  UC 28 gene expression (UC 28 message level by RT-PCR): stimulated by dihydrotestosterone (DHT) in a time and dosage-dependent manner
[2]
  PSMA mRNA down-regulation: 8-10 fold

## Cc1ccc(C(=O)Nc2ccc(S(=O)(=O)O)c3cc(S(=O)(=O)O)cc(S(=O)(=O)O)c23)cc1NC(=O)c1cccc(NC(=O)Nc2cccc(C(=O)Nc3cc(C(=O)Nc4ccc(S(=O)(=O)O)c5cc(S(=O)(=O)O)cc(S(=O)(=O)O)c45)ccc3C)c2)c1 [Suramin]
[3]
  expression of cyclin A: reduces the expression of cyclin A
